Reference: ChEMBL document CHEMBL1136851, “Identification of 4-hydroxyquinolines inhibitors of p300/CBP histone acetyltransferases” (Bioorg Med Chem Lett, 2009)
The source made the active and inactive calls. The rule behind the calls is not given here.

Assays:
[1] = target: CREB-binding protein (Homo sapiens) (UniProt Q92793); assay: Inhibition of human GST-fused histone acetyltransferase CBP in U937 cell nuclear extracts assessed as remaining enzyme activity at 50 uM; type: cell-free; conditions: U-937
[2] = target: Histone acetyltransferase KAT2A (Homo sapiens) (UniProt Q92830); assay: Inhibition of human histone acetyltransferase GCN5 in U937 cell nuclear extracts assessed as remaining enzyme activity at 50 uM; type: cell-free; conditions: U-937
Sequence of Histone acetyltransferase KAT2A (Homo sapiens) (Q92830 2-837 limits assumed): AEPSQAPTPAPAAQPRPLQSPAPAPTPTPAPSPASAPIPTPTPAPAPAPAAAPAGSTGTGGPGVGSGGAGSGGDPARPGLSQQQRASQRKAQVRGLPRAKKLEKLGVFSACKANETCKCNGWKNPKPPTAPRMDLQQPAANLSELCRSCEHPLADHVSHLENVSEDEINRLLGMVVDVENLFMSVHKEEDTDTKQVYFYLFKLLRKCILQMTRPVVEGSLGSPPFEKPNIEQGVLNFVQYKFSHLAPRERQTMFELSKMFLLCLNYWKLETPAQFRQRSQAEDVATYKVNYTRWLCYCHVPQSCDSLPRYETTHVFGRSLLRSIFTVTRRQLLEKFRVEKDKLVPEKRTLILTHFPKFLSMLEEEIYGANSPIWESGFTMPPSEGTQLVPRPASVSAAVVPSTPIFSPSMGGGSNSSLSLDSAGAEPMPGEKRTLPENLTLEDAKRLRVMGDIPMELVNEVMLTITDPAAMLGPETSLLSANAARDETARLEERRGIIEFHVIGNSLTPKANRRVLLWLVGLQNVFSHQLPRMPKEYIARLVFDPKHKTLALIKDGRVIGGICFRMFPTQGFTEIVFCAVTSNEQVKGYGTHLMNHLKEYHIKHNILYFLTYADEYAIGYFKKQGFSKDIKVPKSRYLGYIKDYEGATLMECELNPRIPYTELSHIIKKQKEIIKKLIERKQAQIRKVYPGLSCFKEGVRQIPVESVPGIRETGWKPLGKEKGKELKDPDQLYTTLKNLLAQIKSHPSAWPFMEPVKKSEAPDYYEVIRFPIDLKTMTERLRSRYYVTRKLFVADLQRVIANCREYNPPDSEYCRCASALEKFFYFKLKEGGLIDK

[3] = target: Histone acetyltransferase KAT2B (Homo sapiens) (UniProt Q92831); assay: Inhibition of human GST-fused histone acetyltransferase PCAF in U937 cell nuclear extracts assessed as remaining enzyme activity at 50 uM; type: cell-free; conditions: U-937
Sequence of Histone acetyltransferase KAT2B (Homo sapiens) (Q92831 whole entry, looked up, the tested form may be a part): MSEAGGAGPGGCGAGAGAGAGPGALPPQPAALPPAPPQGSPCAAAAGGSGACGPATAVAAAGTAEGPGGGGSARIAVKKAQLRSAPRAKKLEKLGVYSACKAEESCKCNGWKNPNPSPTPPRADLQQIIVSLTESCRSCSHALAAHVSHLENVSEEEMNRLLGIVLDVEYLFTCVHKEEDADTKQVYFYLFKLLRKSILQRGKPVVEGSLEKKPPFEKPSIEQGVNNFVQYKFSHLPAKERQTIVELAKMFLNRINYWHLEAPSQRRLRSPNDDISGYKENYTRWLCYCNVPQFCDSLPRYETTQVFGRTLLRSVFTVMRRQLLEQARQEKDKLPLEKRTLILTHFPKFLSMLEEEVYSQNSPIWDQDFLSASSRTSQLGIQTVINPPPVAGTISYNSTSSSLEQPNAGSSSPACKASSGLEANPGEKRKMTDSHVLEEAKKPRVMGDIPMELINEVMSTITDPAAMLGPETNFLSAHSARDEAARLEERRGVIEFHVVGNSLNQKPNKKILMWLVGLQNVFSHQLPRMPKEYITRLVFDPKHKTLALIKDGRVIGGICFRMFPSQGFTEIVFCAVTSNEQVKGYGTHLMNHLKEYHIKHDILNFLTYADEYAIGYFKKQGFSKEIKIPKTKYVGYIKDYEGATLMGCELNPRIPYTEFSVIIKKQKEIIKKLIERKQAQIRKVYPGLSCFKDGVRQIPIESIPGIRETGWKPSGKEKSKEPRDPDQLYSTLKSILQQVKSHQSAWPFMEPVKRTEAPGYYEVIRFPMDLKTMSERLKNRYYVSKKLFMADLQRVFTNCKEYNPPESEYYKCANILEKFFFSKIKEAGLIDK

[4] = test system: U-937; assay: Inhibition of SAHA-induced histone H3 acetylation in human U937 cells at 100 uM after 4 hrs by Western blot analysis; type: functional, cell-based
[5] = test system: U-937; assay: Inhibition of SAHA-induced alpha tubulin acetylation in human U937 cells at 100 uM after 4 hrs by Western blot analysis; type: functional, cell-based
[6] = test system: U-937; assay: Cell cycle arrest in human U937 cells assessed as accumulation at G1/S phase at 20 nM after 24 hrs; type: functional, cell-based
[7] = test system: U-937; assay: Cell cycle arrest in human U937 cells assessed as loss of accumulation at G2 phase at 20 nM after 24 hrs; type: functional, cell-based
[8] = test system: U-937; assay: Induction of cell differentiation in human U937 cells assessed as cytodifferentiation at 20 uM after 24 hrs by CD11c/PI method; type: functional, cell-based
[9] = target: Histone acetyltransferase p300 (Homo sapiens) (UniProt Q09472); assay: Inhibition of human immunoprecipitated histone acetyltransferase p300 in U937 cell nuclear extracts assessed as remaining enzyme activity at 50 uM; type: cell-free; conditions: U-937
Sequence of Histone acetyltransferase p300 (Homo sapiens) (Q09472 whole entry): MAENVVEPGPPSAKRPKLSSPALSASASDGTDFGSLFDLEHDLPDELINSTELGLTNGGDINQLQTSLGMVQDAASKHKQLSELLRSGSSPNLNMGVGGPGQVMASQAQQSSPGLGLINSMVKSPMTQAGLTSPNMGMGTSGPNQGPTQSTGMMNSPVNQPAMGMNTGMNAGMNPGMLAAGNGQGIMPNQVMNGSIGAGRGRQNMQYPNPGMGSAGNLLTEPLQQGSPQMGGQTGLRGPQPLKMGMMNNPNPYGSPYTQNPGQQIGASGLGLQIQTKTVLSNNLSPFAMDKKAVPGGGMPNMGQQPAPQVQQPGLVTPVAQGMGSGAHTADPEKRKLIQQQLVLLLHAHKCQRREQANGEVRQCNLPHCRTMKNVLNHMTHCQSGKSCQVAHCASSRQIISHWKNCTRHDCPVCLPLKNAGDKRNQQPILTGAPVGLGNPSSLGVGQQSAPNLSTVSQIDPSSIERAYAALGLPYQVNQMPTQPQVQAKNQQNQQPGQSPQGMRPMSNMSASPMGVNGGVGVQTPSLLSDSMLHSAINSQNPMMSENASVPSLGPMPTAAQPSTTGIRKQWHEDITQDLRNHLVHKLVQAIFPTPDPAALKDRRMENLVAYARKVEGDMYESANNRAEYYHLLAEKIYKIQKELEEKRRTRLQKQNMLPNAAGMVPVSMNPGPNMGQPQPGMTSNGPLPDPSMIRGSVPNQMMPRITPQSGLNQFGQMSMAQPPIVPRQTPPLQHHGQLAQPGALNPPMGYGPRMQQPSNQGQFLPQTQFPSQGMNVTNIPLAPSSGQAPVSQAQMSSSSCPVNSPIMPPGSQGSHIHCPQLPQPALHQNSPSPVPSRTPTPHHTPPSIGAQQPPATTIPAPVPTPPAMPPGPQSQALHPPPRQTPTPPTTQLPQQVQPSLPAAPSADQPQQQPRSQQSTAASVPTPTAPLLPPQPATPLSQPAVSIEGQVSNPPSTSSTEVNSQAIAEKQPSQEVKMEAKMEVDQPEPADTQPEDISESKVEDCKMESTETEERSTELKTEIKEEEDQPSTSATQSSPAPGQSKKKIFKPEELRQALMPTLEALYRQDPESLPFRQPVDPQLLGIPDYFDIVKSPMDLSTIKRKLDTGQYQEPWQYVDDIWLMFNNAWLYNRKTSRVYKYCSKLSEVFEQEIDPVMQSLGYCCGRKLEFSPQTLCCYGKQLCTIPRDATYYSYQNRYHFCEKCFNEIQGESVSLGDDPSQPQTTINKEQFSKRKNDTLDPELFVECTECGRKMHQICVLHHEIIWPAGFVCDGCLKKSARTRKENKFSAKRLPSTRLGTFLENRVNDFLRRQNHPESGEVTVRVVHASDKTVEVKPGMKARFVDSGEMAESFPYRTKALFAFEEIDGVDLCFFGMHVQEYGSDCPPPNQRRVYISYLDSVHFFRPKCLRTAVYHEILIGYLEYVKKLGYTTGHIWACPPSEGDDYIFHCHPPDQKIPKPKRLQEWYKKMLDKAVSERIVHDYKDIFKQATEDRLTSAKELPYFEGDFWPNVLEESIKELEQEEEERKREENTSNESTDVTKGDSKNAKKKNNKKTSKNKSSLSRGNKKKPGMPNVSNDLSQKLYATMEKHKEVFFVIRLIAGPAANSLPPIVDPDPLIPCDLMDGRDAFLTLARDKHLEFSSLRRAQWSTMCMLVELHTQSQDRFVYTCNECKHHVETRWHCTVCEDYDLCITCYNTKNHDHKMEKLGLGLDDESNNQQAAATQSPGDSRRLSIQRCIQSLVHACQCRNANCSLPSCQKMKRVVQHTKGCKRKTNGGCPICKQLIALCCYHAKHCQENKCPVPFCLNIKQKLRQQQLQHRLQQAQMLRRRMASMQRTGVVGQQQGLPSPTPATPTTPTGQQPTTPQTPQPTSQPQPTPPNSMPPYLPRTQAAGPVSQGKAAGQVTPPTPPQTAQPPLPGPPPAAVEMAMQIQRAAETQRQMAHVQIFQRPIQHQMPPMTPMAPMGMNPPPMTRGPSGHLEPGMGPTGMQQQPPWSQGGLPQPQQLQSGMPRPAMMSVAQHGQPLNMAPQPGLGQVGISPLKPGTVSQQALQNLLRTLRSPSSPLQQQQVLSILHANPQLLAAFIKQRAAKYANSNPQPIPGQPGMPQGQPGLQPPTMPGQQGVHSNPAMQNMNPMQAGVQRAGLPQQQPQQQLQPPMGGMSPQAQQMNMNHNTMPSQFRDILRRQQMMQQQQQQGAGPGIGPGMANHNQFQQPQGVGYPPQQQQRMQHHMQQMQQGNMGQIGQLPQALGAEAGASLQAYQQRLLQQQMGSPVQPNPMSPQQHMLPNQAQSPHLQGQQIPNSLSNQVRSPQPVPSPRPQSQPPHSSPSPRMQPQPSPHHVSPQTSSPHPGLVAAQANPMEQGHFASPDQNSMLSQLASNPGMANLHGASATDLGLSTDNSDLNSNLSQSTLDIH

[10] = test system: U-937; assay: Induction of apoptosis in human U937 cells at 20 uM by annexin V/propidium iodide double staining; type: functional, cell-based
[11] = test system: U-937; assay: Induction of apoptosis in human U937 cells at 100 uM by annexin V/propidium iodide double staining; type: functional, cell-based
[12] = test system: U-937; assay: Inhibition of human histone acetyltransferase in U937 cell nuclear extracts at 50 uM; type: cell-free

| Compound | Activity [1] [%] | Activity [2] [%] | Activity [3] [%] | Activity [9] [%] | Activity [4] | Activity [5] | Activity [6] | Activity [7] | Activity [8] | Activity [10] | Activity [11] | inhibition [12] [%] |
| --- | --- | --- | --- | --- | --- | --- | --- | --- | --- | --- | --- | --- |
| Cc1nc2ccccc2c(O)c1C(=O)O | 20.5 | 97.4 | 104 | 11.4 | Active | Active | inactive | inactive | Active | – | – | – |
| CCOC(=O)c1c(C)nc2ccccc2c1O | 13.4 | 97.4 | 81.7 | 16.4 | Active | inactive | inactive | inactive | Active | – | – | – |
| C=C1C(=O)O[C@H](CCC)[C@H]1C(=O)O | 45.9 | 54.5 | 76.8 | 58.6 | – | – | – | – | – | – | – | 44 |
| CCCCCc1nc2ccccc2c(O)c1C(=O)OCC | 91.2 | 102 | 100 | 47.7 | Active | Active | inactive | inactive | Active | – | – | – |

Continued, in another order:

| Activity [1] [%] | Activity [2] [%] | Activity [3] [%] | Activity [9] [%] | Compound | Activity [4] | Activity [5] | Activity [6] | Activity [7] | Activity [8] | Activity [10] | Activity [11] | inhibition [12] [%] |
| --- | --- | --- | --- | --- | --- | --- | --- | --- | --- | --- | --- | --- |
| 13.2 | 95.4 | 91.5 | 53.9 | CCCCCCCCCCc1nc2ccccc2c(O)c1C(=O)O | Active | Active | inactive | inactive | Active | – | – | – |
| 93.4 | 93.4 | 90.1 | 39.1 | CCCCCCCCCCc1nc2ccccc2c(O)c1C(=O)OCC | Active | inactive | Active | Active | Active | Active | Active | – |
| 44 | 113 | 52.1 | 53.1 | C=CC/C=C\C/C=C\CCCCCCCc1cccc(O)c1C(=O)O | – | – | – | – | – | – | – | 15 |
| 14.4 | 103 | 62.7 | 46.9 | CCCCCCCCCCCCCCCc1nc2ccccc2c(O)c1C(=O)O | Active | Active | inactive | inactive | Active | – | – | – |
| 19 | 98 | 103 | 82 | CCCCCc1nc2ccccc2c(O)c1C(=O)O | Active | Active | inactive | inactive | Active | – | – | 30 |
| 116 | 96.8 | 82.4 | 39.8 | CCCCCCCCCCCCCCCc1nc2ccccc2c(O)c1C(=O)OCC | Active | Active | Active | Active | Active | Active | Active | – |
